From paper PMC3517626, “Targeting Fatty Acid Binding Protein (FABP) Anandamide Transporters – A Novel Strategy for Development of Anti-Inflammatory and Anti-Nociceptive Drugs” (PLoS ONE, 2012)
In brackets after ≈: the same amount, converted by molar mass. Values belong to the compound of their own block, whether it stands above or below them.

Assays:
[1] = target: T1, human FABP5 (Homo sapiens, UniProt Q01469); assay: Fluorescence displacement assay with NBD-stearate; type: binding; settings: test compound 10 µM, NBD-stearate 1 µM
T1 construct: FABP5 was purified and delipidated as described previously; made in house
T1 sequence (Q01469 whole entry): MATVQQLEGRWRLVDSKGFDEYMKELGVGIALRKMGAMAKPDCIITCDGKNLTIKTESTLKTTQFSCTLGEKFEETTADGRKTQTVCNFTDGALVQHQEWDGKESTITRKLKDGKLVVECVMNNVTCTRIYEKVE
Method: FABP5 was purified and delipidated as described previously. FABP5 (30 µg), NBD-stearate (1 µM), and a competitor test compound were incubated in 30 mM Tris-HCl, 100 mM NaCl buffer (pH 7.6). Competitors included arachidonic acid, BMS309403, 48 test compounds from ChemDiv library, SB-FI-26 and SB-FI-49. The initial assay was run with buffer (30 mM Tris-HCl buffer), negative controls (buffer and NBD-stearate), positive controls (buffer, NBD-stearate, FABP5), and experimental wells with a variable test compound added (arachidonic acid or one of the 48 test compounds) at 10 µM. […] The fluorescent assays were tested in the wells of Microtest 96-well Assay Plates, Optilux (BD Biosciences, Franklin Lakes, NJ) and loss of fluorescence intensity was measured with a FLUOstar OPTIMA spectrofluorometer set to excitation and emission wavelengths of 460 nm and 544 nm, respectively. […] The Kd of NBD-stearate for FABP5 had been determined previously through incubating FABP5 with increasing concentrations of NBD-stearate.

[2] = Solubility in DMSO; type: physicochemical; settings: in DMSO at 25°C
[3] = target: T1, human FABP5; settings: cited from earlier work
[4] = test system: CB1 receptors; assay: Patch-clamp electrophysiology in brain slices (EPSCs of dorsal raphe 5-HT neurons); type: cell-based; settings: bath application 10 µM; DR 5-HT neurons; n = 8; mean ± SEM
Method: Whole-cell-voltage clamp recordings of dorsal raphe (DR) serotonin (5-HT) neurons were performed as previously described. Briefly, DR neurons were visualized using an upright microscope (BX 51 WI, Olympus, Tokyo, Japan) equipped with a differential interference contrast and infrared imaging system. Somatic recordings from DR neurons were obtained with path electrodes ([…]) back-filled with potassium gluconate based internal solution of the following composition: 120 mM potassium gluconate, 10 mM KCl, 10 mM Na2-phosphocreatine, 10 mM HEPES, 1 mM MgCl2, 1 mM EGTA, 2 mM Na2-ATP, 0.25 mM Na-GTP, pH 7.3 (Adjusted with KOH; Osmolarity, 280 to 290 mOsmol/l). All the recordings were conducted in the presence of GABAA receptor antagonist picrotoxin (100 µM). Excitatory postsynaptic currents (EPSCs) were evoked with a single square stimulus (intensity, 1 to 10 V, duration, 100 to 200 µs) delivered via a glass stimulating electrode. […]
The amplitude of EPSCs was determined by measuring the average current during a 2-ms period at the peak of each EPSC and subtracted from the baseline current determined during a 5-ms time window before the stimulus. All EPSC amplitudes were normalized to the mean baseline amplitude recorded for at least 10 min before drug application. […]

[5] = test system: male C57Bl6 mice; assay: Carrageenan-induced paw edema and thermal hyperalgesia; type: in vivo
Method: (§1) We used male C57Bl6 mice (22–30 g, Taconic Farms) for all experiments. The animals were group housed at room temperature and kept on a 12∶12 hour light∶dark cycle with ad libitum access to water and food. The animals were habituated to the experimental room for one week before testing.
Paw edema was induced by injecting 1% λ-carrageenan (20 µl, in sterile saline) into the plantar surface of the left hind paw and a control solution of saline into the right hind paw using a 27 gauge needle. Paw diameters were measured before carrageenan injection and 4 hours after injection using digital electronic calipers (Fisher) and expressed to the nearest ±0.01 mm. SB-FI-26 (20 mg/kg, i.p.) was dissolved in ethanol∶emulphor∶saline (1∶1∶18), requiring sonication and gentle heating for solubilization, and administered 45 min prior to injection of carrageenan. The cannabinoid receptor antagonists, rimonabant and SR144528 (3 mg/kg, i.p.), in ethanol∶emulphor∶saline (1∶1∶18), were injected 15 min before the FABP inhibitor. Edema is reported as the change in paw diameter at 4 hr over the baseline. Changes in paw diameter of saline-injected contralateral paws were negligible. Thermal hyperalgesia measured the latency to withdraw the paw from a focused beam of radiant heat applied to the plantar surface of the hind paw using a Hargreaves plantar apparatus (Ugo Basile) set at an intensity of 3.0. For each mouse, the average latencies consisted of three trials spaced at least 5 minutes apart. The mice were habituated to the test chamber for 30 min. The cutoff time was set at 30 sec.

[6] = target: T2, PPARα (Homo sapiens, UniProt Q07869); assay: PPARα transactivation in HeLa cells; type: cell-based; settings: reporter system, 6 hrs
T2 construct: expressed in transfected cells; host or cells: HeLa
T2 sequence (Q07869 1-468): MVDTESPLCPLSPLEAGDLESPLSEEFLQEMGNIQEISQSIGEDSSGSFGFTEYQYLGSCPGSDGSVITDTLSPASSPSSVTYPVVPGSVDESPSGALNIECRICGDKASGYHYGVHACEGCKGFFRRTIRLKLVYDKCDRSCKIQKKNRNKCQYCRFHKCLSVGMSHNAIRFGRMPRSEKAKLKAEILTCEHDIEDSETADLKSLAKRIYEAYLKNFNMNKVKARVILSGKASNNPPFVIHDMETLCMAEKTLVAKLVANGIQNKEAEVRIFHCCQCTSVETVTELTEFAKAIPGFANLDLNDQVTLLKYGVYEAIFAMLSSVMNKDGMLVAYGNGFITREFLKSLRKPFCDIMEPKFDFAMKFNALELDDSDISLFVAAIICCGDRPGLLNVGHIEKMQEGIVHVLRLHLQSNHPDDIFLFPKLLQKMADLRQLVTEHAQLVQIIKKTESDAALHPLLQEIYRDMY
Method: (§2) PPARα and PPARγ transactivation assays were performed in HeLa cells exactly as described. Briefly, cells were transfected with the PPAR reporter system, incubated with GW7647, rosiglitazone, or SB-FI-26 for 6 hrs, followed by measurement of luciferase and β-galactosidase activity using a luminometer as described.

[7] = test system: male C57Bl6 mice; assay: Formalin test; type: in vivo
Method: as §1
Mice were habituated to the observation chamber (Plexiglas box, 25 cm×25 cm×25 cm) for 30 min prior to formalin injection. The mice subsequently received an injection of formalin (2.5% in saline, 20 µl) into the plantar surface of the right hind paw using a 27 gauge needle. The animals were immediately placed back into the observation chamber and nocifensive behavior (time spent licking or biting the paw) was recorded for 60 min. The formalin test consists of two phases with the first phase (0–5 min) reflecting nociceptor activation and the second phase (15–45 min) reflecting an inflammatory pain response.

[8] = target: T3, rat FAAH (Rattus norvegicus, UniProt P97612); assay: FAAH enzyme assay ([14C]AEA hydrolysis in HeLa homogenates); type: biochemical; settings: FAAH-transfected HeLa homogenates
T3 construct: expressed in transfected cells; host or cells: HeLa (homogenates)
T3 sequence (P97612 1-579): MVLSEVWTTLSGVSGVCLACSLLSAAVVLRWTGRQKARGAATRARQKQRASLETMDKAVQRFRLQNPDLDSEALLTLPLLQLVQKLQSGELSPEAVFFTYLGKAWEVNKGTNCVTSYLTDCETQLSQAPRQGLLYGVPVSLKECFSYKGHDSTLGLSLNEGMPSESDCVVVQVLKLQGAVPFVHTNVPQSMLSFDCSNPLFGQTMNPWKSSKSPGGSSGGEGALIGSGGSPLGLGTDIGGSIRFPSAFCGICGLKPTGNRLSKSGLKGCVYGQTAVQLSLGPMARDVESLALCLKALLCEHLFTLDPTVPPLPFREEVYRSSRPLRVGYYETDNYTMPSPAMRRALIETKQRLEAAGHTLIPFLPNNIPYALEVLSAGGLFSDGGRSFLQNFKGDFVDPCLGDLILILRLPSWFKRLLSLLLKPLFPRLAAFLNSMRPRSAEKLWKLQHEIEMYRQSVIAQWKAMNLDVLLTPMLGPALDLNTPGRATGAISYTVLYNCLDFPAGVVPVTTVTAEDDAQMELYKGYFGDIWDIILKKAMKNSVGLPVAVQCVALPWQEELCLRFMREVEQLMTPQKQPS
Method: Enzyme assays measuring the hydrolysis of [^14C]AEA in the presence of SB-FI-26 or the FAAH inhibitor URB597 were carried out in HeLa homogenates expressing rat FAAH as described.

[9] = test system: AEA uptake in HeLa cells; assay: AEA uptake in HeLa cells; type: cell-based
Method: AEA uptake assays in wild-type and FABP5 knockdown HeLa cells were performed exactly as described.

[10] = target: T4, PPARγ (Homo sapiens, UniProt P37231); assay: PPARγ transactivation in HeLa cells; type: cell-based; settings: reporter system, 6 hrs
T4 construct: expressed in transfected cells; host or cells: HeLa
T4 sequence (P37231 1-505): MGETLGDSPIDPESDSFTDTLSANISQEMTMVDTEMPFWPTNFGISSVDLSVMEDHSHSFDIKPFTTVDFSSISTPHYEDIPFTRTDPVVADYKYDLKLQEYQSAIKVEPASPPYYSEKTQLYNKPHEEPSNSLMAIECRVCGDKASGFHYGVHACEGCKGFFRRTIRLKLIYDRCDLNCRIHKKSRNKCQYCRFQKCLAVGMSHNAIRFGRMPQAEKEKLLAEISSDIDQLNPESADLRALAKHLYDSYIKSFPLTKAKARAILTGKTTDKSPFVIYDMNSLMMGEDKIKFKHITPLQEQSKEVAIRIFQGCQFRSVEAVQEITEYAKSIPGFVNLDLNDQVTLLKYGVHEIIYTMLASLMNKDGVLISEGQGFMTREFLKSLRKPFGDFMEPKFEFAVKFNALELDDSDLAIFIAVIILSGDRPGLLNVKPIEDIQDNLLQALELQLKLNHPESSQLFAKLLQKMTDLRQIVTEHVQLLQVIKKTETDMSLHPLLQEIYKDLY
Method: as §2

inhibition at 10 µM [1]: ≥ 50%
Structure (SMILES): O=C(O)[C@H]1CC(=O)N(Cc2ccc3c(c2)OCO3)/C(=N/c2ccc(F)cc2)S1 [SB-FI-27]

solubility [2]: 200 µM (≈ 84.5 µg/mL)
Structure (SMILES): O=C(O)[C@H]1[C@@H](c2ccccc2)[C@H](C(=O)Oc2cccc3ccccc23)[C@@H]1c1ccccc1 [SB-FI-49, γ-Truxillic acid 1-naphthyl ester]

inhibition at 10 µM [1]: ≥ 50%
Structure (SMILES): COc1cccc([C@@H]2Oc3ccccc3[C@@H]3CC(c4cccs4)=CN32)c1CC(=O)O [SB-FI-19]

solubility [2]: 1000 µM (≈ 475 µg/mL)
Structure (SMILES): CCc1c(-c2ccccc2)c(-c2ccccc2)nn1-c1ccccc1-c1cccc(OCC(=O)O)c1 [BMS309403, reference compound]

inhibition at 10 µM [1]: ≥ 50%
Structure (SMILES): Cn1c(C(=O)O)c(CC(=O)N2CCC(Cc3ccccc3)CC2)c2ccccc21 [SB-FI-31]

Structure (SMILES): CCCCCCC(CCCCCCCCCCC(=O)O)N(C)c1ccc([N+](=O)[O-])c2nonc12 (centres unmarked) [NBD-stearate, 12-N-methyl-(7-nitrobenz-2-oxa-1,3-diazo)aminostearic acid]
Kd ([3]; one site binding analysis, determined previously, read-out: Kd of NBD-stearate for FABP5): 160 nM

paw edema when administered alone ([5]; without carrageenan): did not induce paw edema | activation of PPARα [6]: ~2 fold | solubility [2]: 1000 µM (≈ 422 µg/mL) | nocifensive behavior when administered alone ([7]; intraplantar injection of 20 µg, no formalin): did not evoke nocifensive behavior | inhibition of FAAH (AEA hydrolysis) [8]: does not inhibit FAAH | activation of PPARγ [10]: ~3 fold
Structure (SMILES): O=C(O)[C@H]1[C@@H](c2ccccc2)[C@H](C(=O)Oc2cccc3ccccc23)[C@@H]1c1ccccc1 [SB-FI-26, α-Truxillic acid 1-naphthyl ester]
amplitude of EPSCs [4]: 107±6.7 % of baseline | carrageenan-induced thermal hyperalgesia ([5]; 20 mg/kg, i.p., 45 min prior to carrageenan): significantly reduced | carrageenan-induced paw edema ([5]; 20 mg/kg, i.p., 45 min prior to carrageenan, paw diameter at 4 hr): significantly reduced | antinociceptive and anti-edematous effects after pretreatment with rimonabant and SR144528 ([5]; SB-FI-26 20 mg/kg i.p., antagonists 3 mg/kg i.p. 15 min before): completely reversed | nocifensive behavior, first phase of the formalin test ([7]; 20 mg/kg, i.p., first phase 0–5 min): significantly reduced nocifensive behavior | AEA uptake ([9]; HeLa cells bearing a knockdown of FABP5 (shRNA)): failed to reduce AEA uptake | cellular AEA accumulation (AEA uptake) ([9]; wild-type HeLa cells): significantly inhibited cellular AEA accumulation

Structure (SMILES): CCCCC/C=C\C/C=C\C/C=C\C/C=C\CCCC(=O)O [arachidonic acid]
Ki ([3]; arachidonic acid, positive control, binding to FABP5, ref not given): 130 nM
